We go through three compounds from patent publication US20240261237A1, “REDUCING SIDE EFFECTS OF NMDA RECEPTOR ANTAGONISTS” (Seelos Therapeutics, Inc., priority 2021, published 2024).

Data set [1] concerns adults with major depressive disorder (MDD) at imminent risk of suicide. The data set is described as follows: Example 4 Phase 2 study: MADRS Total. The data set is classed as in vivo, human. The conditions noted are these: both subjects; 24 hours. The text has this:
The Montgomery-Åsberg Depression Rating Scale (MADRS) is used to assess the severity of depression among subjects who have a diagnosis of depression. The MADRS includes 10 items and uses a 0 to 6 severity scale, scored following the interview. Higher scores indicate increasing depressive symptoms. Ratings can be added to form an overall score (range 0 to 60); no weights are used. Cut-off points include: 0 to 6—symptom absent, 7 to 19—mild depression, 20 to 34—moderate, 35 to 60—severe depression.
(§1) MADRS is a diagnostic questionnaire that can be used to measure the severity of a depressive episode in a subject. In some embodiments, the MADRS can be used to measure the severity of depressive symptoms in a subject, for example, a subject suffering from MDD, TRD, bipolar depression, and other psychiatric disorders described herein with a depression component. In some embodiments, the MADRS can be used to measure TRD. In some embodiments, the MADRS can be used to measure other psychiatric disorders, as described herein. […]

Data set [2] shares this test system. The data set is described as follows: Example 4 Phase 2 study: MADRS item 10 (suicidality). Conditions: for MADRS item 10 score: 24 hours post-administration. The data set is classed as in vivo, human.
Source text: as §1

The test system is the same in data set [3]. The data set can be described thus: Example 4 Phase 2 study: STS-CMCM total score. The data set is classed as in vivo, human. The conditions noted are these: for STS mean score: baseline 21.9; for STS-CMCM score (range 0-52 units): 24 hours post-administration. The text has this: The Sheehan Suicidality Tracking Scale (Sheehan-STS, S-STS) is a prospective rating scale that tracks both treatment-emergent suicidal ideation and behaviors. The Sheehan-STS is a scale with 14 core items and nine additional questions contingent on the core responses that can be administered either by a clinician or patient through self-report. Each item in the Sheehan-STS is scored on a 5-point Likert scale (0=not at all, 1=a little, 2-moderately, 3=very, and 4-extremely).
(§2) The CMCM version of the S-STS (S-STS CMCM) has four parts, and can also provide a comprehensive description of suicidal ideation and behavior. See, e.g., Sheehan et al., Innov. Clin. Neurosci. Vol. 11, No. 9-10, pp. 93-140 (2014) The S-STS CMCM (version 01/01/19) is a clinician-rated outcome measure which assesses SI/B on multiple patient and clinician-rated items. It includes 13 suicidality items that are rated on a Likert-type scale ranging from “not at all” (0) to “extremely” (4), yielding a total score ranging from 0 to 52. The final 6 items are used only when the patient misses a visit and is unable to complete the scale; if that missed visit is due to attempted or completed suicide, the possible maximum score is […]. The CMCM also yields 5 different single-item global assessments: 1) subject-rated likelihood of a suicide attempt; 2) subject-rated treatment needed; 3) clinician global severity of suicidal impulses, thoughts, and behaviors; 4) clinician judgment of suicide risk at this time and level of management needed for suicidality; and 5) clinician judgment of subject's likelihood of making a suicide attempt or of dying by suicide in the next 7 days.
(§3) The secondary endpoints are the change from baseline at 24 hours, as well as at Day 16, in the following: • (1) PGIS-SI/B (Day 16 only) • (2) S-STS total score (Day 16 only) • (3) CGI of Change in SI/B (CGIC-SI/B) • (4) PGI of Change in SI/B (PGIC-SI/B) • (5) S-STS Clinician-Rated Global Severity of Suicidal Impulses, Thoughts, and Behaviors • (6) S-STS Clinician judgment of subject's risk of a suicide attempt or death by suicide at this time • (7) S-STS Clinician judgment of subject's likelihood (risk) of making a suicide attempt or of dying by suicide in the next 7 days • (8) S-STS Subject-rated global severity of suicidal impulses, thoughts, and behavior • (9) S-STS Subject-rated treatment needed score • (10) MADRS item 10 response rate (response≤3 units) • (11) MADRS response (total score ≥50% reduction from baseline) • (12) MADRS remission (total score ≤12)

Data set [4] has the same test system. The data set is described as follows: Example 4 Phase 2 study: STS-CMCM risk of suicide at this time. The data set is classed as in vivo, human.
Source text: as §2, §3

Data set [5] shares this test system. The data set can be described thus: Example 4 Phase 2 study: STS-CMCM Risk of Suicide at Within the Next 7 Days. The data set is classed as in vivo, human.
Source text: as §2, §3

Data set [6] deals with subjects. The conditions noted are these: in vivo; cited from earlier work.
For data set [7] the following is noted: in vivo; cited from earlier work.
Data set [8] has as its system adults with major depressive disorder (MDD) at imminent risk of suicide. The data set can be described thus: Example 4 Phase 2 study: C-SSRS. The conditions noted are these: 24 hours post-administration, baseline yes.
For data set [9] the test system is unchanged. The data set is described as follows: Example 4 Phase 2 study: adverse events. The conditions noted are these: in vivo.
For data set [10] the test system is unchanged. The data set is described as follows: Example 4 Phase 2 study: MOAA/S (sedation).
Data set [11] has the same test system. The data set is described as follows: Example 4 Phase 2 study: CADSS (dissociation). The conditions noted are these: for CADSS change from baseline: at 40 minutes.

Structures are written as SMILES. A value given as a limit tells only on which side of the number the result lay.

For the compound `CNC1(c2ccccc2Cl)CCCCC1=O` (racemic) [racemic ketamine, (R)-2-(2-chlorophenyl)-2-(methylamino)cyclohexanone and (S)-2-(2-chlorophenyl)-2-(methylamino)cyclohexanone], in data set [1], the “reduction of MADRS Total” value is on record as above 50%. In addition, the “MADRS item 10 score” value in [2] (Subject 1, baseline 5 units) is given as 0 units; in data set [2] (second subject (not named), baseline 5 units pre-dose), 0 units. For the same compound, the “sustained response (MADRS Item 10) after the final administration” value in data set [2] (with SOC) came to 15 days. Moreover, in data set [3] (Day 1), the “patients with >14 points within-patient change from baseline in STS” value is 94%. The “patients with 4 points within-patient change in STS” value in [3] (Day 1, 1 patient) stood at 6%. For the same compound, the STS mean score in data set [3] (Day 1) was determined as 1.7; in [3] (Day 16), 0.0; in data set [3] (Day 29), 0.0. Also, the “STS-CMCM score (range 0-52 units)” value in data set [3] (Subject 1, from 18 units) is recorded as “zero”; in data set [3] (Subject 2, from 22 units), 3 units. In addition, the “STS-CMCM score (range 0-9; risk of suicide at this time)” value in data set [4] (Subject 1, 24 hours post-administration, baseline 7 units) is listed as 3 units; in [4] (Subject 1, Day 9) it was 2 units; in data set [4] (Subject 2, 24 hours post-administration, from 7 units) it was 3 units; in data set [4] (Subject 2, Day 9), “zero”; in data set [4] (both subjects, Day 8), 2 units. In addition, the “STS-CMCM Risk of Suicide at Within the Next 7 Days score” value in data set [5] (Subject 1, 24 hours post-administration, from 5 units) is recorded as 2 units; in data set [5] (Subject 2, 24 hours post-administration, baseline 7 units), 1 unit; in data set [5] (the scores on Day 4), 1 unit; in data set [5] (the scores on Day 8), 0 units. In addition, the “movement during the anesthetic recovery phase / locomotor activity” value in data set [6] was “increased movement during the anesthetic recovery phase”. Besides, the antidepressant properties result in [7] is “exhibit antidepressant properties”. In addition, the “C-SSRS score for suicidal ideation (yes or no)” value in data set [8] (Subject 1) and in [8] (Subject 2) was “no” in each case. For the same compound, in [9], the serious adverse events result is “no serious adverse events were observed”. In addition, the “MOAA/S score of the 1 subject with a score <5 units on subsequent dosing days” value in data set [10] (6-hour time-point on Day 4) is 4 units. Besides, the “subjects with MOAA/S score of 5 units at all time-points” value in data set [10] (Day 1, 7 subjects) is reported as 5 of 7. The “MOAA/S score, all subjects” value in [10] (Day 1, no one below) was at least 4 units. In [11] (Days 1 and 4, 7 subjects), the “subjects with no dissociation (CADSS)” value is reported as “four of the 7”. Also, the subjects reporting dissociation in [11] (after Day 4 (on Day 11 at 40 minutes), 7 subjects) came to 1. In addition, the “CADSS change from baseline” value in data set [11] (Day 4 (after second dose)) came out at 2.3; in [11] (Day 8 (after third dose)), 0.4; in data set [11] (after first dose), 3.8. Further, the sedation or dissociation result in [11] (entire patient cohort to the Day 29/30 endpoint) is “no clinically meaningful sedation or dissociation”.

As to `NC1(c2ccccc2Cl)CCCC(O)C1=O` (stereo not shown) [6-hydroxynorketamine], the “movement during the anesthetic recovery phase / locomotor activity” value in data set [6] is reported as “no anesthetic or locomotor activity”. Besides, in data set [7], the antidepressant properties result is “exhibit antidepressant properties”.

With `NC1(c2ccccc2Cl)CCCCC1=O` (stereo not shown) [norketamine], in data set [6], the “movement during the anesthetic recovery phase / locomotor activity” value is recorded as “increased movement during the anesthetic recovery phase”.
